The text below walks through data of PubChem BioAssay AID1259407 (Chemical Carcinogenesis Research Information System (CCRIS), 2018).

In this data set the test system is CCRIS mutagenicity, Ames/micronucleus/aberration tests. Nature of the data set: CCRIS mutagenicity studies.
[1] abbreviates: Test System: AMES SALMONELLA TYPHIMURIUM, Strain/Indicator: TA98, Metabolic Activation: NONE, Method: PREINCUBATION
Setting [2] is: Test System: AMES SALMONELLA TYPHIMURIUM, Strain/Indicator: TA98, Metabolic Activation: RAT, LIVER, S-9, AROCLOR 1254, Method: STANDARD PLATE.
The mark [3] stands for this setting: Test System: AMES SALMONELLA TYPHIMURIUM, Strain/Indicator: TA100, Metabolic Activation: NONE, Method: PREINCUBATION
Setting [4] is: Test System: AMES SALMONELLA TYPHIMURIUM, Strain/Indicator: TA100, Metabolic Activation: NONE, Method: STANDARD PLATE.
The mark [5] stands for this setting: Test System: AMES SALMONELLA TYPHIMURIUM, Strain/Indicator: TA100, Metabolic Activation: RAT, LIVER, S-9, AROCLOR 1254, Method: STANDARD PLATE.
[6] abbreviates: Test System: AMES SALMONELLA TYPHIMURIUM, Strain/Indicator: TA98, Metabolic Activation: NONE, Method: STANDARD PLATE.

The source made the active and inactive calls. The rule behind the calls is not given here.

Consider `CC(O)CC(C)(C)O` (centres undefined), for which the mutagenic call runs as follows: (Test System: Ames Salmonella typhimurium, Strain/Indicator: TA98, Metabolic Activation: None, Method: Preincubation) “inactive; negative”; (Test System: Ames Salmonella typhimurium, Strain/Indicator: TA98, Metabolic Activation: Rat, Liver, S9, Sodium phenobarbital and 5,6-benzoflavone (10%), Method: Preincubation) “inactive; negative”; (Test System: Ames Salmonella typhimurium, Strain/Indicator: TA100, Metabolic Activation: None, Method: Preincubation) “inactive; negative”; (Test System: Ames Salmonella typhimurium, Strain/Indicator: TA100, Metabolic Activation: Rat, Liver, S9, Sodium phenobarbital and 5,6-benzoflavone (10%), Method: Preincubation) “inactive; negative”; (Test System: Ames Salmonella typhimurium, Strain/Indicator: TA1535, Metabolic Activation: None, Method: Preincubation) “inactive; negative”; (Test System: Ames Salmonella typhimurium, Strain/Indicator: TA1535, Metabolic Activation: Rat, Liver, S9, Sodium phenobarbital and 5,6-benzoflavone (10%), Method: Preincubation) “inactive; negative”. In addition, the mutagenic call (Test System: Ames Salmonella typhimurium, Strain/Indicator: TA1537, Metabolic Activation: None, Method: Preincubation) was “inactive; negative”; the mutagenic call (Test System: Ames Salmonella typhimurium, Strain/Indicator: TA1537, Metabolic Activation: Rat, Liver, S9, Sodium phenobarbital and 5,6-benzoflavone (10%), Method: Preincubation) is “inactive; negative”; the mutagenic call (Test System: E. coli, Strain/Indicator: WP2uvrA/pKM101, Metabolic Activation: None, Method: Preincubation) is “inactive; negative”; the mutagenic call (Test System: E. coli, Strain/Indicator: WP2uvrA/pKM101, Metabolic Activation: Rat, Liver, S9, Sodium Phenobarbital and 5,6-benzoflavone (10%), Method: Preincubation) was “inactive; negative”.

On to `Cc1cc2ccccc2c2ccc3ccccc3c12`, for which the mutagenic call is “active; positive. highly potent. protection against mutagenicity by human glutathione s-” (End Point: Chinese hamster lung fibroblasts, Strain/Indicator: V79MZ/HPRT/6-Thioguanidine, Metabolic Activation: Stably transfected human CYP1A1 (hCYP1A1), Method: Preincubation); “active; positive. highly potent. protection against mutagenicity by human glutathione s-” (End Point: Chinese hamster lung fibroblasts, Strain/Indicator: V79MZ/HPRT/6-Thioguanidine, Metabolic Activation: Stably transfected human CYP1B1 (hCYP1B1), Method: Preincubation); “inactive; negative” under setting [1]; “active; positive” under setting [2]; “active; positive” (Test System: AMES SALMONELLA TYPHIMURIUM, Strain/Indicator: TA98, Metabolic Activation: RAT, LIVER, S-9, Method: PREINCUBATION); “inactive; negative” under setting [3]. The mutagenic call under setting [4] was “inactive; negative”; the mutagenic call (Test System: AMES SALMONELLA TYPHIMURIUM, Strain/Indicator: TA100, Metabolic Activation: RAT, LIVER, MICROSOMES, 5-METHYLCHRYSENE, Method: STANDARD PLATE) was “inactive; negative”; the mutagenic call (Test System: AMES SALMONELLA TYPHIMURIUM, Strain/Indicator: TA100, Metabolic Activation: RAT, LIVER, MICROSOMES, AROCLOR 1254, Method: STANDARD PLATE) is “active; positive”; the mutagenic call (Test System: AMES SALMONELLA TYPHIMURIUM, Strain/Indicator: TA100, Metabolic Activation: RAT, LIVER, MICROSOMES, Method: STANDARD PLATE) was “inactive; negative”; the mutagenic call under setting [5] is “active; positive”; the mutagenic call (Test System: AMES SALMONELLA TYPHIMURIUM, Strain/Indicator: TA100, Metabolic Activation: RAT, LIVER, S-9, Method: PREINCUBATION) was “active; positive”.

With `COc1ccc(CN(CC[N+](C)(C)[O-])c2ccccn2)cc1`, the mutagenic call by setting is: (Test System: AMES SALMONELLA TYPHIMURIUM, Strain/Indicator: TA97, Metabolic Activation: NONE, Method: STANDARD PLATE) “inactive; negative”; (Test System: AMES SALMONELLA TYPHIMURIUM, Strain/Indicator: TA97, Metabolic Activation: RAT, LIVER, S-9, AROCLOR 1254, Method: STANDARD PLATE) “inactive; negative”; under setting [6], “inactive; negative”; under setting [2], “inactive; negative”; under setting [4], “inactive; negative”; under setting [5], “inactive; negative”. The mutagenic call (Test System: AMES SALMONELLA TYPHIMURIUM, Strain/Indicator: TA102, Metabolic Activation: NONE, Method: STANDARD PLATE) is “inactive; negative” and the mutagenic call (Test System: AMES SALMONELLA TYPHIMURIUM, Strain/Indicator: TA102, Metabolic Activation: RAT, LIVER, S-9, AROCLOR 1254, Method: STANDARD PLATE) was “inactive; negative”.

On to `O=C(Nc1cccc([N+](=O)[O-])c1)c1csc([N+](=O)[O-])c1`, for which the mutagenic call by setting is: under setting [6], “active; positive”; under setting [4], “active; positive”.

Consider `CC(C)([CH2][Sn]([CH2]C(C)(C)c1ccccc1)([CH2]C(C)(C)c1ccccc1)[O][Sn]([CH2]C(C)(C)c1ccccc1)([CH2]C(C)(C)c1ccccc1)[CH2]C(C)(C)c1ccccc1)c1ccccc1`, for which the mutagenic call runs as follows: (End Point: In vitro chromosomal aberrations, Test System: Human lymphocytes, Metabolic Activation: None) “inactive; negative”; (End Point: In vitro chromosomal aberrations, Test System: Human lymphocytes, Metabolic Activation: Rat, Liver, S-9, Aroclor 1254) “inactive; negative”; (End Point: In vivo micronucleus, Test System: Bone marrow polychromatic erythrocytes, Species: Mouse, Strain/Sex: Crl:CD-1(ICR)BR/Male and female, Route: Oral) “inactive; negative”; (End Point: UDS, Test System: Rat primary hepatocytes, Metabolic Activation: None, Method: Autoradiography) “inactive; negative”; (Test System: Chinese hamster ovary cells, Strain/Indicator: CHO cells (HPRT)/6-Thioguanine, Metabolic Activation: None, Method: Standard plate) “inactive; negative”; (Test System: Chinese hamster ovary cells, Strain/Indicator: CHO cells (HPRT)/6-Thioguanine, Metabolic Activation: Rat, Liver, S-9, Aroclor 1254, Method: Standard plate) “inactive; negative”.

In the case of `C[C@]12CC[C@@H]3c4ccc(O)c(O)c4CC[C@H]3[C@@H]1CCC2=O`, the mutagenic call by setting is: (Test System: Ames Salmonella typhimurium, Strain/Indicator: TA98, Metabolic Activation: None, Method: Standard plate) “inactive; negative”; (Test System: Ames Salmonella typhimurium, Strain/Indicator: TA98, Metabolic Activation: Rat, liver, S-9, Method: Standard plate) “inactive; negative”; (Test System: Ames Salmonella typhimurium, Strain/Indicator: TA100, Metabolic Activation: None, Method: Standard plate) “inactive; negative”; (Test System: Ames Salmonella typhimurium, Strain/Indicator: TA100, Metabolic Activation: Rat, liver, S-9, Method: Standard plate) “inactive; negative”.

On to `COC(=O)Nc1nc2ccc(C(=O)c3ccccc3)cc2[nH]1`, for which the mutagenic call is “inactive; negative” under setting [6], “active; positive” under setting [2] and “inactive; negative” under setting [4].

For the compound `CCCC(=O)OCc1ccc([N+](=O)[O-])cc1`, the mutagenic call is “inactive; negative” under setting [1]; “inactive; negative” (Test System: AMES SALMONELLA TYPHIMURIUM, Strain/Indicator: TA100(NR), Metabolic Activation: NONE, Method: PREINCUBATION); “active; positive” under setting [3]; “active; positive” (Test System: AMES SALMONELLA TYPHIMURIUM, Strain/Indicator: TA100, Metabolic Activation: RAT, LIVER, S-9, AROCLOR 1254, Method: PREINCUBATION).

Turning to `Cc1cc2nc3cc(C)c(N)cc3[n+](-c3ccccc3)c2cc1N`, the mutagenic call reads like this: (Test System: AMES SALMONELLA TYPHIMURIUM, Strain/Indicator: TA98, Method: PREINCUBATION) “active; positive”; (Test System: AMES SALMONELLA TYPHIMURIUM, Strain/Indicator: TA100, Method: PREINCUBATION) “active; positive”.

As for `COC1=C[C@@H]2[C@@H]3Cc4ccc(OC)c(O)c4[C@]2(CCN3C)CC1=O`, the mutagenic call reads like this: (Test System: AMES SALMONELLA TYPHIMURIUM, Strain/Indicator: TA98, Metabolic Activation: RAT, LIVER, S-9, PHENOBARBITAL AND BETA-NAPHTHOFLAVONE, Method: PREINCUBATION) “inactive; negative”; (Test System: AMES SALMONELLA TYPHIMURIUM, Strain/Indicator: TA100, Metabolic Activation: RAT, LIVER, S-9, PHENOBARBITAL AND BETA-NAPHTHOFLAVONE, Method: PREINCUBATION) “inactive; negative”.

Take `c1cc[c]([Sb]([c]2ccccc2)[c]2ccccc2)cc1`: the mutagenic call (Test System: AMES SALMONELLA TYPHIMURIUM, Strain/Indicator: TA1535, Metabolic Activation: RAT, LIVER, S-9, AROCLOR 1254, Method: STANDARD PLATE) is “active; positive”; the mutagenic call (Test System: Mouse lymphoma, Strain/Indicator: L5178Y (tk+/tk-), Metabolic Activation: None, Method: Suspension/plate) is “inactive; negative”; the mutagenic call (Test System: Mouse lymphoma, Strain/Indicator: L5178Y (tk+/tk-), Metabolic Activation: Rat, Liver, S-9, Aroclor 1254, Method: Suspension/plate) was “active; equivocal (previous evaluation positive)”.

In the case of `O=[N+]([O-])c1ccc2c(c1)CCc1ccccc1-2`, the mutagenic call by setting is: (Test System: AMES SALMONELLA TYPHIMURIUM, Strain/Indicator: TA98(1,8-DNP6), Metabolic Activation: NONE, Method: STANDARD PLATE) “active; positive”; (Test System: AMES SALMONELLA TYPHIMURIUM, Strain/Indicator: TA98(NR), Metabolic Activation: NONE, Method: STANDARD PLATE) “active; positive”; under setting [6], “active; positive”.
